# Results published in patent publication US20240116985A1, “STAPLED PEPTIDES AND METHODS THEREOF” (priority 2020, published 2024).
# Where two headings read alike, the source gives them in different places.
# What was measured:
# [1] = target: T1, full-length beta-Catenin (Uniprot ID P35222) (Homo sapiens, UniProt P35222); test: Fluorescence polarization IC50 (beta-catenin / 5FAM-TCF4 10-53 competition); format: binding; conditions: fluorescence polarization; read-out: beta-Catenin FP IC50
# T1 construct: 10 nM full-length beta-Catenin (Uniprot ID P35222)
# T1 sequence (P35222 1-781): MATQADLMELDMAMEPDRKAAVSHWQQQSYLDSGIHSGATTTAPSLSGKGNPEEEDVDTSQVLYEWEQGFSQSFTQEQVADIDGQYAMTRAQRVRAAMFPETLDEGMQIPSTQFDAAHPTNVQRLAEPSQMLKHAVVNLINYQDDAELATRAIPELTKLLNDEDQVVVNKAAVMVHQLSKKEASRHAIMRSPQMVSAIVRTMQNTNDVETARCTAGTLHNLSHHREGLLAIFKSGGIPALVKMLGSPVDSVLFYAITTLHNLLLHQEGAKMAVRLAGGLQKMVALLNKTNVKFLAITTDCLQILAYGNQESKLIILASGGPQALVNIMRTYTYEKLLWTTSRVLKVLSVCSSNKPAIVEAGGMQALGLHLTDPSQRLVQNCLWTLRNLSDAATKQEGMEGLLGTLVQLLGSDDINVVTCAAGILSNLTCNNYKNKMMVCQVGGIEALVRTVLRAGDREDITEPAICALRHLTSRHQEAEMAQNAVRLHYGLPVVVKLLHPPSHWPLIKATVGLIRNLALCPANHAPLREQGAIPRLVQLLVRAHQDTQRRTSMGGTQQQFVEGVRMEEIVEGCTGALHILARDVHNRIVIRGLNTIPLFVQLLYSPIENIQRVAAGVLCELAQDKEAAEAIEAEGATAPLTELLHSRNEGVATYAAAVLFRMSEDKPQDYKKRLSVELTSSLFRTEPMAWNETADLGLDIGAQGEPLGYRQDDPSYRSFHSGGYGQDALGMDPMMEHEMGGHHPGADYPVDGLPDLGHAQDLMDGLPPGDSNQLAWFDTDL
# COLO320DM cells = format: cell-based; conditions: COLO320DM cells, read-out: COLO320DM Proliferation Abs IC50
# Method: COLO320DM proliferation assay IC50: In some embodiments, inhibition of cell proliferation by provided technologies were assessed using cell lines related to or from certain conditions, disorders or diseases. In some embodiments, cell proliferation was assessed in COLO320DM cells. In some embodiments, assessment was performed using the following procedure: On Day 1, cultured COLO320DM cells in a T75 flask were trypsinized in 3 mL of 0.25% trypsin/EDTA for 5 min and quenched with 10 mL RPMI-1640+4% HI FBS assay media. The cells were spun down at 1200 rpm for 5 min, the cell pellet collected and re-suspended at 5000 cells/mL in assay media. Using a Combi liquid handler, cells were dispensed (50 uL, 250 cells/well) into three 384 well plates. Plates were incubated at 37° C., […]. On day 2, compounds were added. A liquid handling system was used to prepare the compound dilution and dispense compound into assay plates. The compounds were serially diluted 1/2 in 90% DMSO to create a 7 point dose curve. From compound plate, 100 nL of compound were dispensed directly into wells of the assay plates to create a dose curve starting at 20 uM and ending at 313 nM. Assay plates were incubated at 37° C., […]. On day 6, assay plates were removed from the incubator and allowed to sit at room temperature for 30 min. Using a liquid handler, 20 uL of CellTiter Glo reagent was added to each well. The assay plates were shaken for 2 min and allowed to sit on the bench for 10-15 minutes. The assay plates were read using the CellTiter Glo protocol on a GloMax microplate reader, and the data analyzed using GraphPad Prism.
# [2] = target: T2, beta-catenin/TCF4 engagement (Homo sapiens, UniProt P35222); test: Nano-BRET target engagement assay (B-cat-Halo & TCF4-Luc in HEK293 cells); format: cell-based; conditions: read-out: NanoBRET Abs IC50
# T2 construct: expressed in transfected cells; host or cells: HEK293
# T2 sequence (P35222 1-781): T1 sequence (P35222 1-781)
SMILES,IC50 [1] [nM],IC50 (COLO320DM cells) [nM],IC50 [2] [nM],IC50 (COLO320DM cells; absolute IC50) [nM],IC50 ([2]; absolute IC50) [nM]
"CC(=O)NCCCC[C@@H]1NC(=O)[C@H](Cc2ccccc2)NC(=O)[C@H](C)NC(=O)C(C)(C)NC(=O)[C@H](Cc2cccc(C(=O)O)c2)NC(=O)[C@H](CC(=O)O)NC(=O)C2(CCCC=CCCCOC(=O)N3CC[C@@](C(=O)N[C@@H](Cc4ccccc4C(F)(F)F)C(=O)N[C@@H](Cc4csc5ccccc45)C(=O)N[C@@H](C)C(=O)N[C@@H](C)C(N)=O)(C3)NC1=O)CCCC=CC[C@]1(CCCN1C(C)=O)C(=O)N[C@@H](CC(=O)O)C(=O)N[C@@H](CC(C)(C)C)C(=O)N2 (stereo partly drawn) [I-2579, Ac-PL3-Asp-Npg-B5-Asp-3COOHF-Aib-Ala-Phe-AcLys-PyrS2-2F3MeF-BztA-Ala-Ala-NH2]",41,15300,4700,,
"CC(=O)N1CCC[C@]12CC=CCCCC1(CCCC=CCCCOC(=O)N3CC[C@@](C(=O)N[C@@H](Cc4ccccc4C(F)(F)F)C(=O)N[C@@H](Cc4csc5ccccc45)C(=O)N[C@@H](CCC(=O)N(C)C)C(N)=O)(C3)NC(=O)[C@H](CC(C)C)NC(=O)[C@H](Cc3ccccc3)NC(=O)[C@H](C)NC(=O)[C@H](CCC(=O)N(C)C)NC(=O)[C@H](Cc3cccc(C(=O)O)c3)NC(=O)[C@H](CC(=O)O)NC1=O)NC(=O)[C@H](CC(C)(C)C)NC(=O)[C@H](CC(=O)O)NC2=O (stereo partly drawn) [I-2300, Ac-PL3-Asp-Npg-B5-Asp-3COOHF-[NMe2]GlnR-Ala-Phe-Leu-PyrS2-2F3MeF-BztA-INMe2]GlnR-NH2]",6,,,> 20000,1200
"CC(=O)N1CCC[C@]12CC=CCCCC1(CCCC=CCCCOC(=O)N3CC[C@@](C(=O)N[C@@H](Cc4ccsc4)C(=O)N[C@@H](Cc4csc5ccccc45)C(=O)N[C@@H](CO)C(=O)N[C@@H](C)C(N)=O)(C3)NC(=O)[C@H](CO)NC(=O)[C@H](Cc3ccccc3)NC(=O)[C@H](C)NC(=O)C(C)(C)NC(=O)[C@H](Cc3cccc(C(=O)O)c3)NC(=O)[C@H](CC(=O)O)NC1=O)NC(=O)[C@H](CC(C)(C)C)NC(=O)[C@H](CC(=O)O)NC2=O (stereo partly drawn) [I-2577, Ac-PL3-Asp-Npg-B5-Asp-3COOHF-Aib-Ala-Phe-Ser-PyrS2-3Thi-BztA-Ser-Ala-NH2]",7,9500,2700,,
"CC(=O)N1CCC[C@]12CC=CCCCC1(CCCC=CCCCOC(=O)N3CC[C@@](C(=O)N[C@@H](Cc4ccccc4Cl)C(=O)N[C@@H](Cc4csc5ccccc45)C(=O)N[C@@H](CC(N)=O)C(=O)N[C@@H](C)C(=O)N[C@@H](C)C(=O)N[C@@H](C)C(N)=O)(C3)NC(=O)[C@H](CC(C)C)NC(=O)[C@H](Cc3ccccc3)NC(=O)[C@H](C)NC(=O)[C@H](C)NC(=O)[C@H](Cc3cccc(C(=O)O)c3)NC(=O)[C@H](CC(=O)O)NC1=O)NC(=O)[C@H](CC(C)(C)C)NC(=O)[C@H](CC(=O)O)NC2=O (stereo partly drawn) [I-2040, Ac-PL3-Asp-Npg-B5-Asp-3COOHF-Ala-Ala-Phe-Leu-PyrS2-2C1F-BztA-Asn-Ala-Ala-Ala-NH2]",24,> 20000,2800,,
"CC(=O)N1CCC[C@]12CC=CCCCC1(CCCC=CCCCOC(=O)N3CC[C@@](C(=O)N[C@@H](Cc4ccccc4C(F)(F)F)C(=O)N[C@@H](Cc4csc5ccccc45)C(=O)N[C@@H](CCC(=O)N4CCOCC4)C(N)=O)(C3)NC(=O)[C@H](CC(C)C)NC(=O)[C@H](Cc3ccccc3)NC(=O)[C@H](C)NC(=O)[C@H](C)NC(=O)[C@H](Cc3cccc(C(=O)O)c3)NC(=O)[C@H](CC(=O)O)NC1=O)NC(=O)[C@H](CC(C)(C)C)NC(=O)[C@H](CC(=O)O)NC2=O (stereo partly drawn) [I-2541, Ac-PL3-Asp-Npg-B5-Asp-3COOHF-Ala-Ala-Phe-Leu-PyrS2-2F3MeF-BztA-MorphGln-NH2]",21,,,> 20000,4700
"CC(=O)N1CCC[C@]12CC=CCCCC1(CCCC=CCCCOC(=O)N3CC[C@@](C(=O)N[C@@H](Cc4ccsc4)C(=O)N[C@@H](Cc4csc5ccccc45)C(=O)N[C@@H](CC(N)=O)C(=O)N[C@@H](C)C(=O)N[C@@H](C)C(=O)N[C@@H](C)C(=O)N[C@@H](C)C(=O)N[C@@H](C)C(N)=O)(C3)NC(=O)[C@H](CC(C)C)NC(=O)[C@H](Cc3ccccc3)NC(=O)[C@H](C)NC(=O)[C@H](C)NC(=O)[C@H](Cc3cccc(C(=O)O)c3)NC(=O)[C@H](CC(=O)O)NC1=O)NC(=O)[C@H](CC(C)(C)C)NC(=O)[C@H](CC(=O)O)NC2=O (stereo partly drawn) [I-2268, Ac-PL3-Asp-Npg-B5-Asp-3COOHF-Ala-Ala-Phe-Leu-PyrS2-3Thi-BztA-Asn-Ala-Ala-Ala-Ala-Ala-NH2]",13,,,4300,3100
"CC(=O)N1CCC[C@]12CC=CCCCC1(CCCC=CCCCOC(=O)N3CC[C@@](C(=O)N[C@@H](Cc4ccsc4)C(=O)N[C@@H](Cc4csc5ccccc45)C(=O)N[C@@H](CC(N)=O)C(=O)N[C@@H](C)C(=O)NC(C)(C)C(=O)N[C@@H](C)C(N)=O)(C3)NC(=O)[C@H](CC(C)C)NC(=O)[C@H](Cc3ccccc3)NC(=O)[C@H](C)NC(=O)[C@H](C)NC(=O)[C@H](Cc3cccc(C(=O)O)c3)NC(=O)[C@H](CC(=O)O)NC1=O)NC(=O)[C@H](CC(C)(C)C)NC(=O)[C@H](CC(=O)O)NC2=O (stereo partly drawn) [I-2271, Ac-PL3-Asp-Npg-B5-Asp-3COOHF-Ala-Ala-Phe-Leu-PyrS2-3Thi-BztA-Asn-Ala-Aib-Ala-NH2]",13,,,9000,2300
"CC(=O)N1CCC[C@]12CC=CCCCC1(CCCC=CCCCOC(=O)N3CC[C@@](C(=O)N[C@@H](Cc4ccsc4)C(=O)N[C@@H](Cc4csc5ccccc45)C(=O)N[C@@H](CC(N)=O)C(=O)N[C@@H](CC(C)C)C(N)=O)(C3)NC(=O)[C@H](CC(C)C)NC(=O)[C@H](Cc3ccccc3)NC(=O)[C@H](C)NC(=O)[C@H](C)NC(=O)[C@H](Cc3cccc(C(=O)O)c3)NC(=O)[C@H](CC(=O)O)NC1=O)NC(=O)[C@H](CC(C)(C)C)NC(=O)[C@H](CC(=O)O)NC2=O (stereo partly drawn) [I-2274, Ac-PL3-Asp-Npg-B5-Asp-3COOHF-Ala-Ala-Phe-Leu-PyrS2-3Thi-BztA-Asn-Leu-NH2]",10,,,6200,2000
"CC(=O)N1CCC[C@]12CC=CCCCC1(CCCC=CCCCOC(=O)N3CC[C@@](C(=O)N[C@@H](Cc4ccsc4)C(=O)N[C@@H](Cc4csc5ccccc45)C(=O)N[C@@H](CC(N)=O)C(N)=O)(C3)NC(=O)[C@H](Cc3ccccc3)NC(=O)[C@H](Cc3ccccc3)NC(=O)[C@H](C)NC(=O)[C@H](C)NC(=O)[C@H](Cc3cccc(C(=O)O)c3)NC(=O)[C@H](CC(=O)O)NC1=O)NC(=O)[C@H](CC(C)(C)C)NC(=O)[C@H](CC(=O)O)NC2=O (stereo partly drawn) [I-2044, Ac-PL3-Asp-Npg-B5-Asp-3COOHF-Ala-Ala-Phe-Phe-PyrS2-3Thi-BztA-Asn-NH2]",9,> 20000,2600,,
"CC(=O)N1CCC[C@]12CC=CCCCC1(CCCC=CCCCOC(=O)N3CC[C@@](C(=O)N[C@@H](Cc4ccccc4Cl)C(=O)N[C@@H](Cc4csc5ccccc45)C(=O)N[C@@H](CC(N)=O)C(N)=O)(C3)NC(=O)[C@H](CC(C)C)NC(=O)[C@H](Cc3ccccc3)NC(=O)[C@H](C)NC(=O)[C@H](C)NC(=O)[C@H](Cc3cccc(C(=O)O)c3)NC(=O)[C@H](CC(=O)O)NC1=O)NC(=O)[C@H](CC(C)(C)C)NC(=O)[C@H](CC(=O)O)NC2=O (stereo partly drawn) [I-1904, Ac-PL3-Asp-Npg-B5-Asp-3COOHF-Ala-Ala-Phe-Leu-PyrS2-2C1F-BztA-Asn-NH2]",15,> 20000,4200,,
